Measurements: US11548939B2, “Therapeutic combinations using IGF1R pathway inhibitors, and methods to predict anti-IGF1R therapeutic efficacy” (UNIVERSITY OF PITTSBURGH-OF THE COMMONWEALTH SYSTEM OF …, priority 2018, dated 2023)

How the values were obtained:
[1] = tested on: MDA-MB-134 (MM134) ILC cells; test: Synergy measurement (Chou-Talalay combination index), CellTiter Glo viability, 96-well ULA plates, 6 days; details: for CI: ED75 / CI: ED90: MM134, drug in combination with ICI 182,780, mean ± SEM, 3 independent experiments
Experimental: MDA-MB-134 ILC cells were plated into 96-well ULA plates and treated for 6 days with increasing doses of OSI-906 (FIG. 11A, 11B), BMS-754807 (FIGS. 11C, 11D), or BEZ235 (FIGS. 11E, 11F) in combination with increasing doses of ICI 182,780. The dose response curves (FIGS. 11A, 11C, 11E) and heat maps (FIGS. 11B, 11D, 11F) shown indicate inhibition of cell viability (CellTiter Glo). Representative experiment shown; n=3 each with 2 biological replicates per combination of doses.
Plates (2D and ultra-low attachment [ULA; Corning #3474]) were collected on day 6 and viability was measured using CellTiter Glo Viability assay (Promega #G7572). […] For synergy experiments, SUM44PE and MDA-MB-134 cells were plated in 96-well ULA plates (18,000 cells/well) in 100 μl of media/well. […] Synergy was calculated using the Median-Effect Principle and Combination Index-Isobologram Theorem (Chou-Talalay)^27. Combination index values for ED50, ED75, ED90 are shown as a mean±SEM from n=3 independent experiments.
Synergy was measured using the Median-Effect Principle and Combination-Index Isoblogram Theorem. […] Values are shown +/−SEM from 3 independent experiments each with n=2 biological replicates.

[2] = tested on: BCK4 xenograft tumor; test: ILC xenograft tumor ex vivo explant culture, Ki67 staining; format: cell-based; details: 1 μM, 72 hours, vehicle 25%, p=0.005
Experimental: (§1) FIGS. 12A, 12B, 12C, 12D, 12E and 12F show IGF1R inhibition reduces Ki67 staining in ILC tumor ex vivo culture. MM134 (FIGS. 12A, 12B, and 12C) and BCK4 (FIGS. 12D, 12E, and 12F) xenograft tumors were harvested from immunocompromised mice, minced into 1-2 mm^3 tumor chunks and then plated on gelatin sponges in 12-well plate containing 1.5 mL media. Media was treated with DMSO Vhc (FIGS. 12A and 12D) or 1 μM […] (FIGS. 12B and 12E) for 72 hours. Tumor pieces were harvested by FFPE and stained for Ki67 as a marker of proliferation. Staining was quantified for MM134 (FIG. 12C) and BCK4 (FIG. 12F) cells by counting all clearly defined nuclei in 20× images. Statistical difference was assessed using a Student's t-test (p<0.05; n=3-6). […] Nuclei were quantified by counting all clearly defined nuclei within each tissue section (n=3-6). […]

[3] = tested on: SUM44PE ILC cells; test: Synergy measurement (Chou-Talalay combination index), CellTiter Glo viability, 96-well ULA plates, 6 days; details: for CI: ED75 / CI: ED90: SUM44PE, drug in combination with ICI 182,780, mean ± SEM, 3 independent experiments
Experimental: SUM44PE ILC cells were plated into 96-well ULA plates and treated for 6 days with increasing doses of OSI-906 (FIG. 10A, 10B), BMS-754807 (FIG. 10C, 10D), or BEZ235 (FIG. 10E, 10F) in combination with increasing doses of ICI 182,780. The dose response curves (FIG. 10A, 10C, 10E) and heat maps (FIG. 10B, 10D, 10F) shown indicate inhibition of cell viability (CellTiter Glo).
For synergy experiments, SUM44PE and MDA-MB-134 cells were plated in 96-well ULA plates (18,000 cells/well) in 100 μl of media/well. […] Synergy was calculated using the Median-Effect Principle and Combination Index-Isobologram Theorem (Chou-Talalay)^27. Combination index values for ED50, ED75, ED90 are shown as a mean±SEM from n=3 independent experiments.
Synergy was measured using the Median-Effect Principle and Combination-Index Isoblogram Theorem. […] Values are shown +/−SEM from 3 independent experiments each with n=2 biological replicates. CI values <1 indicate a synergistic drug interaction.

[4] = tested on: MM134 xenograft tumor; test: ILC xenograft tumor ex vivo explant culture, Ki67 staining; format: cell-based, human; details: 1 μM, 72 hours, vehicle 47%, p=0.002
Experimental: as §1

[5] = tested on: MCF-7 cells; test: Dose response growth assay (CellTiter Glo) in cells transfected with SCR or CDH1 siRNA; format: cell-based; details: 6 days
Text: The CellTiter Glo assay was used to assess cell viability (relative luminescence).
CellTiter Glo assay was used to assess cell viability (relative luminescence).

[6] = tested on: ZR75.1 cells; test: as above; format: cell-based; details: 6 days
Text: FIGS. 5A and 5B show knockdown of E-cadherin increases sensitivity to IGF1R inhibition in breast cancer cells. ZR75.1 cells were reverse transfected with SCR or CDH1 siRNA and seeded into 96-well 2D (FIG. 5A) or ULA (FIG. 5B) plates and treated with OSI-906 for 6 days. CellTiter Glo assay was used to assess cell viability (relative luminescence).

Compound | CI: ED75 [1] | CI: ED90 [1] | Ki67 positive nuclei [2] [%] | CI: ED75 [3] | CI: ED90 [3] | CI: ED75 ([3]; listed as BMS) | CI: ED90 ([3]; listed as BMS) | Ki67 positive nuclei [4] [%] | viability of siCDH1 cells compared to siSCR cells in response to treatment ([5]; 2D growth condition) | viability of siCDH1 cells compared to siSCR cells in response to treatment ([5]; ULA growth condition) | viability of siCDH1 cells compared to siSCR cells in response to treatment ([6]; 2D growth condition) | viability of siCDH1 cells compared to siSCR cells in response to treatment ([6]; ULA growth condition) | minimum dose reduction index (DRI) for ICI ([1]; MM134 cells, all drug combinations (OSI, BMS, BEZ), at the EC50) [fold] | minimum dose reduction index (DRI) for ICI ([3]; SUM44PE cells, all drug combinations (OSI, BMS, BEZ), at the EC50) [fold] | difference in EC50 between siSCR and siCDH1 cells ([5]; 2D and ULA (FIG. 6))
C[C@@]1(C(=O)Nc2ccc(F)nc2)CCCN1c1nc(Nc2cc(C3CC3)[nH]n2)c2cccn2n1 [BMS-754807, (2S)-1-[4-[(5-Cyclopropyl-1H-pyrazol-3-yl)amino]pyrrolo[2,1-f][1,2,4]triazin-2-yl]-N-(6-fluoro-3-pyridinyl)-2-methyl-2-Pyrrolidinecarboxamide] | 0.230 ± 0.04 | 0.667 ± 0.15 | 11 | 0.081 ± 0.04 | 0.099 ± 0.04 | 0.081 | 0.099 | 22 | no significant difference | decreased viability |  |  |  |  | 
C[C@]1(O)C[C@@H](c2nc(-c3ccc4ccc(-c5ccccc5)nc4c3)c3c(N)nccn32)C1 [OSI-906, cis-3-[8-amino-1-(2-phenyl-7-quinolinyl)imidazo[1,5-a]pyrazin-3-yl]-1-methyl-cyclobutanol] | 0.449 ± 0.18 | 0.808 ± 0.48 |  | 0.250 ± 0.10 | 0.398 ± 0.22 |  |  |  | significantly decreased viability | significantly decreased viability | not in the 2D growth condition | significantly decreased viability |  |  | 
Cn1c(=O)n(-c2ccc(C(C)(C)C#N)cc2)c2c3cc(-c4cnc5ccccc5c4)ccc3ncc21 [BEZ235, 4-[2,3-dihydro-3-methyl-2-oxo-8-(3-quinolinyl)-1H-imidazo[4,5-c]quinolin-1-yl]-α,α-dimethyl-benzeneacetonitrile] | 0.547 ± 0.13 | 2.885 ± 1.34 |  | 0.401 ± 0.12 | 0.425 ± 0.12 |  |  |  |  |  |  |  |  |  | 
C[C@]12CC[C@@H]3c4ccc(O)cc4C[C@@H](CCCCCCCCC[S+]([O-])CCCC(F)(F)C(F)(F)F)[C@H]3[C@@H]1CC[C@@H]2O (stereo partly drawn) [ICI 182,780, 7α,17β-[9-[(4,4,5,5,5-Pentafluoropentyl)sulfinyl]nonyl]estra-1,3,5(10)-triene-3,17-diol] |  |  |  |  |  |  |  |  |  |  |  |  | ≥ 2 | ≥ 8 | no statistical difference in EC50
